Results from patent publication US10369185B2, “Methods and compositions for enhancement of ability to concentrate” (KYOWA HAKKO BIO CO., LTD., priority 2014, dated 2019).
Peptide text beside a SMILES is read from it.

Experiments:
[1] = Blood measures during the 60-min run (plasma lactate, glucose, osmolality, potassium, sodium, glutamine); assay type: in vivo, human; settings: at 45-min; HD compared with LD
Description: During each experimental session baseline (BL) blood samples were obtained at preexercise. Additional blood samples were also obtained following 30 min, 45 min and 60 min during the exercise session. All blood samples were obtained using a 20-gauge Teflon cannula placed in a superficial forearm vein using a 3-way stopcock with a male luer lock adapter. The cannula was maintained patent using an isotonic saline solution. BL blood samples were drawn following a 15-min equilibration period prior to exercise. Blood samples were obtained at the same time of day during each session.
Blood samples were drawn into plain or EDTA treated tubes. Blood samples will be analyzed in triplicate for hematocrit via microcapillary technique and hemoglobin. […]
Plasma glucose and lactate concentrations were determined in duplicate with an automated analyzer (Analox GM7 enzymatic metabolite analyzer, Analox Instruments USA, Lunenburg, Mass.). Plasma glutamine was analyzed with the use of a spectrophotometer and a commercially available enzymatic kit (Abnova, Jhongli City, Taiwan) per manufacturer's instructions. Serum immunoreactivity values were determined using a BioTekEon spectrophotometer (BioTek, Winooski, Vt., USA). Plasma sodium and potassium concentrations were assessed via ion-selective electrodes (EasyElectrolyte, Medica, Bedford, Mass.). […]

male runners = test: Dynavision D2 visual, motor and physical reaction time to a visual stimulus; assay type: in vivo, human; settings: between groups
Description: The testing protocol is depicted in FIG. 1. Data collection occurred on four separate occasions. Each session required participants to perform a 60-min run at 75% of their previously measured VO2max. Following this run, all participants performed a run at 90% of their VO2max until volitional exhaustion. All participants performed their first trial (DHY) without any rehydration. During this session the total weight lost during the trial was determined. The fluid loss that occurred during this session was then used to determine the participant's swear rate (L·hr^−1). To continue in the study, participant's sweat rate was or exceeded 1.3 L·hr^−1. […] The first assessment measured the participant's visual, motor, and physical reaction time to a stimulus with the dominant hand. […] Visual reaction time was determined as the amount of time from identifying the stimulus and initiating a reaction by leaving the home button. Motor response time was determined by the time (measured in 1/100's of a second) it took to physically strike the stimulus following the initial visual reaction and was measured as the amount of time from the hand leaving the home button and striking the stimulus. Physical reaction time was determined by the total elapsed time from the introduction of the target stimulus to the physical completion of the task (returning to the home button after striking the stimulus). […]

- plasma glutamine concentrations [1]: significant difference
SMILES: C[C@H](N)C(=O)N[C@@H](CCC(N)=O)C(=O)O [L-Alanyl-L-Glutamine] (H-Ala-Gln-OH)
- change in visual, motor and physical reaction times to a visual stimulus (male runners): No significant differences were noted between groups
